# Measured values: BindingDB's records for doi:10.1016/j.bmcl.2009.08.014 (Wuxi Pharmatech, 2009)
# Experiment: Antagonist activity at CXCR2 expressed in CHO cells assessed as inhibition of IL-8-induced chemotaxis
row,IC50,Compound
1,46 nM,"CCN(CC)Nc1c(Nc2cccc(C(=O)N(C)C)c2O)c(=O)c1=O [3-(2-(2,2-diethylhydrazinyl)-3,4-dioxocyclobut-1-enylamino)-2-hydroxy-N,N-dimethylbenzamide]"
2,1250 nM,"CCN(Nc1c(Nc2cccc(C(=O)N(C)C)c2O)c(=O)c1=O)C(C)=O [3-(2-(2-acetyl-2-ethylhydrazinyl)-3,4-dioxocyclobut-1-enylamino)-2-hydroxy-N,N-dimethylbenzamide]"
3,840 nM,"CCN(Nc1c(Nc2cccc(C(=O)N(C)C)c2O)c(=O)c1=O)C(=O)c1ccc(F)cc1 [3-(2-(2-ethyl-2-(4-fluorobenzoyl)hydrazinyl)-3,4-dioxocyclobut-1-enylamino)-2-hydroxy-N,N-dimethylbenzamide]"
4,6340 nM,"CCN(Cc1ccc(F)cc1)Nc1c(Nc2cccc(C(=O)N(C)C)c2O)c(=O)c1=O [3-(2-(2-ethyl-2-(4-fluorobenzyl)hydrazinyl)-3,4-dioxocyclobut-1-enylamino)-2-hydroxy-N,N-dimethylbenzamide]"
5,840 nM,"CCN(Nc1c(Nc2cccc(C(=O)N(C)C)c2O)c(=O)c1=O)c1ccc(F)cc1 [3-(2-(2-ethyl-2-(4-fluorophenyl)hydrazinyl)-3,4-dioxocyclobut-1-enylamino)-2-hydroxy-N,N-dimethylbenzamide]"
6,100 nM,"CCN(Nc1c(Nc2cccc(C(=O)N(C)C)c2O)c(=O)c1=O)c1ccc(OC)cc1 [3-(2-(2-ethyl-2-(4-methoxyphenyl)hydrazinyl)-3,4-dioxocyclobut-1-enylamino)-2-hydroxy-N,N-dimethylbenzamide]"
7,75 nM,"CCN(Nc1c(Nc2cccc(C(=O)N(C)C)c2O)c(=O)c1=O)c1ccccn1 [3-(2-(2-ethyl-2-(pyridin-2-yl)hydrazinyl)-3,4-dioxocyclobut-1-enylamino)-2-hydroxy-N,N-dimethylbenzamide]"
8,54 nM,"CCN(Nc1c(Nc2cccc(C(=O)N(C)C)c2O)c(=O)c1=O)c1ccccc1 [3-(2-(2-ethyl-2-phenylhydrazinyl)-3,4-dioxocyclobut-1-enylamino)-2-hydroxy-N,N-dimethylbenzamide]"
